In ChEMBL document CHEMBL5096216, “Rational Design, Synthesis, and Biological Evaluation of Novel S1PR2 Antagonists for Reversing 5-FU-Resistance in Colorectal Cancer” (J Med Chem, 2022):
Blank lines part the entries; values can stand above or below the compound they belong to.

Assays:
[1] = molecular target: Sphingosine 1-phosphate receptor 2 (Homo sapiens, UniProt O95136); test: Binding affinity to S1PR2 (unknown origin) assessed as dissociation constant by surface plasmon resonance analysis
HCT-116 [2] = test: Antiproliferative activity against human HCT-116 cells overexpressing DPD assessed as reduction in cell viability incubated for 48 hrs by MTT assay; type: functional, cell-based; conditions: HCT-116, 48 h
[3] = Cytotoxicity against human NCM460 cells assessed as reduction in cell viability incubated for 48 hrs by MTT assay; type: toxicity, cell-based
[4] = molecular target: Sphingosine 1-phosphate receptor 1 (Homo sapiens, UniProt P21453); test: Binding affinity to S1PR1 (unknown origin) assessed as dissociation constant by surface plasmon resonance analysis
Sphingosine 1-phosphate receptor 1, sequence (P21453 whole entry): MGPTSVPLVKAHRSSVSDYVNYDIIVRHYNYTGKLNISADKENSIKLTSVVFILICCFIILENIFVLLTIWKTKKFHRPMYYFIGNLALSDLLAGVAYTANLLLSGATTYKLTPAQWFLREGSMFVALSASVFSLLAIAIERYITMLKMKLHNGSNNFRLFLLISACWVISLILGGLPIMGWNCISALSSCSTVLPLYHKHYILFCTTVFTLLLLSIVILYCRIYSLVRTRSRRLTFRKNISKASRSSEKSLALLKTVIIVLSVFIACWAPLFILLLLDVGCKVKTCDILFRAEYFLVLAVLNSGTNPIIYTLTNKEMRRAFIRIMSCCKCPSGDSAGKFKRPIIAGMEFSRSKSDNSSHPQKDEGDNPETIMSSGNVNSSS

SW620/5-FU [5] = test: Antiproliferative activity against human SW620/5-FU cells assessed as reduction in cell viability incubated for 48 hrs by MTT assay; type: functional, cell-based
[6] = molecular target: T1, Sphingosine 1-phosphate receptor 4 (Homo sapiens, UniProt O95977); test: Binding affinity to S1PR4 (unknown origin) assessed as dissociation constant by surface plasmon resonance analysis
T1 sequence (O95977 whole entry): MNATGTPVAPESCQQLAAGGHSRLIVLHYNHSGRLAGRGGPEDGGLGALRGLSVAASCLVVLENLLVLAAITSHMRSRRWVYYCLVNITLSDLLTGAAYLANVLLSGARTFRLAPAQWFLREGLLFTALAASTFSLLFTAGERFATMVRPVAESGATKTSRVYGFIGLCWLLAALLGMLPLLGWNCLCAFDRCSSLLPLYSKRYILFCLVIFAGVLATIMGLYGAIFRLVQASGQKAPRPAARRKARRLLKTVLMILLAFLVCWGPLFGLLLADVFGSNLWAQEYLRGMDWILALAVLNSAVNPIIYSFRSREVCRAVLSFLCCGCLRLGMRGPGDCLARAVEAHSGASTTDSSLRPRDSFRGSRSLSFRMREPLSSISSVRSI

[7] = molecular target: Sphingosine 1-phosphate receptor 5 (Homo sapiens, UniProt Q9H228); test: Binding affinity to S1PR5 (unknown origin) assessed as dissociation constant by surface plasmon resonance analysis
Sphingosine 1-phosphate receptor 5, sequence (Q9H228 whole entry): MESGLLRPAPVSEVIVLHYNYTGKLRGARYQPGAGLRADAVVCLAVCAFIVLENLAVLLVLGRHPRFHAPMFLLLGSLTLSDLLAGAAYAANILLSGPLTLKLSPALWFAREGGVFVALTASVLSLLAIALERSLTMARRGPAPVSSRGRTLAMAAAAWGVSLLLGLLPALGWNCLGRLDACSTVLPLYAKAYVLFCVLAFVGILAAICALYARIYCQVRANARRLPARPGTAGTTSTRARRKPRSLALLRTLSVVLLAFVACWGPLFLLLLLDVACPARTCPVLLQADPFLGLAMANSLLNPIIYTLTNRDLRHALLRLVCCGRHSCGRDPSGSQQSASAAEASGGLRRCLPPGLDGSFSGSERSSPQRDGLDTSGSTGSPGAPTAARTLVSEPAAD

[8] = molecular target: Sphingosine 1-phosphate receptor 3 (Homo sapiens, UniProt Q99500); test: Binding affinity to S1PR3 (unknown origin) assessed as dissociation constant by surface plasmon resonance analysis
Sphingosine 1-phosphate receptor 3, sequence (Q99500 whole entry): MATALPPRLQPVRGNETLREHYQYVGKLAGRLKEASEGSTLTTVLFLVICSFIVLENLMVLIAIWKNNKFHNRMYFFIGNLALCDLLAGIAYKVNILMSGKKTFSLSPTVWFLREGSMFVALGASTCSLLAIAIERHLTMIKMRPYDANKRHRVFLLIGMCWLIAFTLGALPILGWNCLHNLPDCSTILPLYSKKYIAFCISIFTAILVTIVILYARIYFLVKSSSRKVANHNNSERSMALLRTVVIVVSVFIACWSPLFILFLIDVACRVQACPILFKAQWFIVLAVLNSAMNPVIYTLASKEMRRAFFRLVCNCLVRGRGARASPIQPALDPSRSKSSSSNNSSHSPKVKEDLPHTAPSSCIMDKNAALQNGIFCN

HT-29 [9] = test: Reversal of 5-FU resistance in human HT-29 cells assessed as reduction in cell viability incubated for 48 hrs in presence of 5-FU by MTT assay; type: functional, cell-based; conditions: HT-29, 48 h; note: test concentration or dose not given here
SW620/5-FU [10] = test: Reversal of 5-FU resistance in human SW620/5-FU cells assessed as reduction in cell viability incubated for 48 hrs in presence of 5-FU by MTT assay; type: functional, cell-based; note: test concentration or dose not given here
HT-29 [11] = test: Antiproliferative activity against human HT-29 cells assessed as reduction in cell viability incubated for 48 hrs by MTT assay; type: functional, cell-based; conditions: HT-29, 48 h
NCM460 = test: Cytotoxicity against human NCM460 cells assessed as reduction in cell viability incubated for 48 hrs in presence of 5-FU by MTT assay; type: functional, cell-based; conditions: NCM460, 48 h
HCT-116 [12] = test: Reversal of 5-FU resistance in human HCT-116 cells overexpressing DPD assessed as reduction in cell viability incubated for 48 hrs in presence of 5-FU by MTT assay; type: functional, cell-based; conditions: HCT-116, 48 h; note: test concentration or dose not given here

Sphingosine 1-phosphate receptor 2, sequence (O95136 whole entry): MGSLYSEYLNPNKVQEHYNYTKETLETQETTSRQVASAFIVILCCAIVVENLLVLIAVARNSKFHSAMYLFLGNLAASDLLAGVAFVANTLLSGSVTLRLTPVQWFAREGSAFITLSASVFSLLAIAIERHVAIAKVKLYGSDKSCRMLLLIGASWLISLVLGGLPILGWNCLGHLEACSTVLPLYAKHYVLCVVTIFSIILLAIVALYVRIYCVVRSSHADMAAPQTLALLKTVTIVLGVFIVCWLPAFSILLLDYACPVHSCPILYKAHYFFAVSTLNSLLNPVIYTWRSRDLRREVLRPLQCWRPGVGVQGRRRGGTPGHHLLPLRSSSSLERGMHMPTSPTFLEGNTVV

Compound: CNC(=O)c1ccc(Oc2cc(NC(=O)N3CCN(C(=O)c4ccc(F)cc4)CC3)cc(Oc3ccc(F)cc3)c2)cc1
Kd [1]: 94.3 nM

Compound: CNC(=O)c1ccc(Oc2cc(NC(=O)N3CCN(c4cccc(OC)c4)CC3)cc(Oc3ccc(F)cc3)c2)cc1
Kd [1]: > 1000 nM

Compound: CCC(CC)CN1CCN(C(=O)Nc2cc(Oc3ccc(F)cc3)cc(Oc3ccc(C(=O)N4CCOCC4)cc3)c2)CC1
Kd [1]: > 1000 nM

Compound: CNC(=O)c1ccc(Oc2cc(NC(=O)N3CCN(C(=O)Cc4cccc(OC)c4)CC3)cc(Oc3ccc(F)cc3)c2)cc1
Kd [1]: > 1000 nM

Compound: C#CCNC(=O)c1ccc(Oc2cc(NC(=O)N3CCN(CC(CC)CC)CC3)cc(Oc3ccc(F)cc3)c2)cc1
Kd [1]: > 1000 nM

Compound: CNC(=O)c1ccc(Oc2cc(NC(=O)N3CCN(Cc4ccc(F)cc4)CC3)cc(Oc3ccc(F)cc3)c2)cc1
Kd [1]: > 1000 nM

Compound: CNC(=O)c1ccc(Oc2cc(NC(=O)N3CCN(c4ccc(Cl)cc4)CC3)cc(Oc3ccc(F)cc3)c2)cc1
Kd [1]: > 1000 nM

Compound: CCC(CC)CN1CCN(C(=O)Nc2cc(Oc3ccc(F)cc3)cc(Oc3ccc(C(=O)N4CCCCC4)cc3)c2)CC1
Kd [1]: > 1000 nM

Compound: CCC(CC)CN1CCN(C(=O)Nc2cc(Oc3ccc(F)cc3)cc(Oc3ccc(C(=O)N4CCCCCC4)cc3)c2)CC1
Kd [1]: > 1000 nM

Compound: CCC(CC)CN1CCCN(C(=O)Nc2cc(Oc3ccc(F)cc3)cc(Oc3ccc(C(=O)NC)cc3)c2)CC1
Kd [1]: > 1000 nM

Compound: CNC(=O)c1ccc(Oc2cc(NC(=O)N3CCN(c4ccc(C(F)(F)F)cc4)CC3)cc(Oc3ccc(F)cc3)c2)cc1
Kd [1]: > 1000 nM

These reach a lower Kd [1]. Values come first.

Kd [1]: 1.15 nM
Compound: CNC(=O)c1ccc(Oc2cc(NC(=O)N3CCN(C(=O)OC(C)(C)C)CC3)cc(Oc3ccc(F)cc3)c2)cc1

Kd [1]: 66.9 nM
Compound: O=C(Nc1cc(Oc2ccncc2)cc(Oc2ccc(F)cc2)c1)N1CCC(O)(c2ccc(Cl)cc2)CC1

Kd [1]: 9.44 nM
Compound: CNC(=O)c1ccc(Oc2cc(NC(=O)Nc3cc(Cl)nc(Cl)c3)cc(Oc3ccc(F)cc3)c2)cc1

IC50 (HCT-116 [2]): > 100000 nM | Kd [4]: > 100 nM | IC50 (SW620/5-FU [5]): > 100000 nM | Kd [6]: > 100 nM | Kd [7]: > 100 nM | Kd [8]: > 100 nM | IC50 (HT-29 [9]): > 100000 nM | Kd [1]: 0.63 nM | IC50 (SW620/5-FU [10]): 3210 nM | IC50 (HT-29 [11]): > 100000 nM | IC50 (HCT-116 [12]): 2930 nM
Compound: CCC(CC)CNC1CCN(C(=O)Nc2cc(Oc3ccncc3)cc(Oc3ccc(F)cc3)c2)CC1
IC50 at 48 hrs [3]: > 100000 nM | IC50 (NCM460): > 100000 nM

Kd [1]: 7.23 nM
Compound: CCNC(=O)c1ccc(Oc2cc(NC(=O)N3CCN(CC(CC)CC)CC3)cc(Oc3ccc(F)cc3)c2)cc1

IC50 (HCT-116 [2]): > 100000 nM | Kd [4]: > 100 nM | IC50 (SW620/5-FU [5]): > 100000 nM | Kd [6]: > 100 nM | Kd [7]: > 100 nM | Kd [8]: > 100 nM | IC50 (HT-29 [9]): 3910 nM | Kd [1]: 0.49 nM | IC50 (SW620/5-FU [10]): 3650 nM | IC50 (HT-29 [11]): > 100000 nM | IC50 (HCT-116 [12]): 3160 nM
Compound: CNC(=O)c1ccc(Oc2cc(NC(=O)N3CCN(CC4CCCCC4)CC3)cc(Oc3ccc(F)cc3)c2)cc1
IC50 at 48 hrs [3]: > 100000 nM | IC50 (NCM460): > 100000 nM

Kd [1]: 5.16 nM
Compound: CNC(=O)c1ccc(Oc2cc(NC(=O)N3CCC(O)(c4ccc(Cl)cc4)CC3)cc(Oc3ccc(F)cc3)c2)cc1

IC50 (HCT-116 [2]): > 100000 nM | Kd [4]: > 100 nM | IC50 (SW620/5-FU [5]): > 100000 nM | Kd [6]: > 100 nM | Kd [7]: > 100 nM | Kd [8]: > 100 nM | IC50 (HT-29 [9]): 5130 nM | Kd [1]: 0.88 nM | IC50 (SW620/5-FU [10]): 2150 nM | IC50 (HT-29 [11]): > 100000 nM | IC50 (HCT-116 [12]): 2650 nM
Compound: CCC(CC)CN1CCN(C(=O)Nc2cc(Oc3ccc(F)cc3)cc(Oc3ccc(C(=O)O)cc3)c2)CC1
IC50 at 48 hrs [3]: > 100000 nM | IC50 (NCM460): > 100000 nM

Kd [1]: 7.48 nM
Compound: O=C(Nc1cc(Oc2ccc(F)cc2)cc(Oc2ccc(F)cc2)c1)Nc1cc(Cl)nc(Cl)c1
